Key:
PC3 (prostate cell line) = test: Cytotoxicity assay (propidium iodide assay), PC3; format: cell-based; conditions: PC3 cells, 48 h treatment; for inhibition at 1 µM / IC50: Homo sapiens, PC-3
Protocol: (§1) The assay was designed as in the reference, Anticancer Drugs, 2002, 13, 1-8, the disclosure of which is incorporated by reference for the teaching of the assay.
(§2) Cells from cell lines A2780 (ovarian cell line) and PC3 (prostate cell line) (both from ATCC) were seeded at a density of 3000 cells/well in a white opaque 96-well plate. Following incubation at 37° C./5% CO2 for a period of 18-24 h, the cells were treated with various concentrations (stock solution was prepared in DMSO and subsequent dilutions were made in media as per ATCC guidelines) of the test compounds for a period of 48 h. At the end of treatment, the culture medium was discarded, the cells were washed with 1×PBS and 200 μl of 7 μg/ml propidium iodide was added to each well. The plates were frozen at −70° C. overnight. For analysis, the plates were warmed to RT, allowed to thaw and were read in PoleStar fluorimeter with the fluorescence setting. The percentage of viable cells in the non-treated set of wells was considered to be 100 and the percentage viability following treatment was calculated accordingly. IC50 values were calculated from graphs plotted using these percentages.

[1] = system: A2780 (ovarian cell line); test: Cytotoxicity assay (propidium iodide assay), A2780; format: cell-based; conditions: A2780 cells, 48 h treatment; for inhibition at 1 µM / IC50: Homo sapiens
Protocol: as §1, §2

| SMILES | inhibition at 1 µM (PC3 (prostate cell line); 1 μM) [%] | inhibition at 1 µM ([1]; 1 μM) [%] | also measured |
| --- | --- | --- | --- |
| Cn1c(=NC#N)n(-c2ccc(C(C)(C)C#N)nc2)c2c3cc(-c4ccc(F)cc4)ccc3ncc21 [Example 80, N-(1-(6-(2-cyanopropan-2-yl)pyridin-3-yl)-8-(4-fluorophenyl)-3-methyl-1H-imidazo[4,5-c]quinolin-2(3H)-ylidene)cyanamide] | 30 to 70 | ≥ 70 | – |
| COc1ccc(-n2c(=NC#N)n(C)c3cnc4ccc(-c5cccc(Cl)c5)cc4c32)cn1 [Example 28, N-(8-(3-chlorophenyl)-1-(6-methoxypyridin-3-yl)-3-methyl-1H-imidazo[4,5-c]quinolin-2(3H)-ylidene)cyanamide] | < 30 | 30 to 70 | – |
| CC(C)(C#N)c1ccc(-n2c(=NC#N)[nH]c3cnc4ccc(-c5cccnc5)cc4c32)cc1 [Example 85, N-(1-(4-(2-cyanopropan-2-yl)phenyl)-8-(pyridin-3-yl)-1H-imidazo[4,5-c]quinolin-2(3H)-ylidene)cyanamide] | < 30 | < 30 | – |
| COc1ccc(-n2c(=NC#N)n(C)c3cnc4ccc(-c5ccc(C)cc5)cc4c32)cn1 [Example 44, N-(1-(6-methoxypyridin-3-yl)-3-methyl-8-p-tolyl-1H-imidazo[4,5-c]quinolin-2(3H)-ylidene)cyanamide] | < 30 | 30 to 70 | – |
| COc1ccc(-n2c(=NC#N)n(C)c3cnc4ccc(-c5cnc(NC(=O)OC(C)(C)C)c(C(F)(F)F)c5)cc4c32)cn1 [Example 123, tert-butyl 5-(2-(cyanoimino)-1-(6-methoxypyridin-3-yl)-3-methyl-2,3-dihydro-1H-imidazo[4,5-c]quinolin-8-yl)-3-(trifluoromethyl)pyridin-2-ylcarbamate] | – | – | IC50 (PC3 (prostate cell line)): ≤ 0.5 µM; IC50 [1]: ≤ 0.5 µM |
| COc1ccc(-n2c(=NC#N)n(C)c3cnc4ccc(-c5cncc6ccccc56)cc4c32)cn1 [Example 35, N-(8-(isoquinolin-4-yl)-1-(6-methoxypyridin-3-yl)-3-methyl-1H-imidazo[4,5-c]quinolin-2(3H)-ylidene)cyanamide] | 30 to 70 | ≥ 70 | – |
| COc1ccc(-n2c(=NC#N)n(C)c3cnc4ccc(-c5cnc6ccccc6c5)cc4c32)cn1 [Example 3, N-(1-(6-methoxypyridin-3-yl)-3-methyl-8-(quinolin-3-yl)-1H-imidazo[4,5-c]quinolin-2(3H)-ylidene)cyanamide] | – | – | IC50 (PC3 (prostate cell line)): ≤ 0.5 µM; IC50 [1]: ≤ 0.5 µM |
| CN(C)c1ncc(-c2ccc3ncc4c(c3c2)n(-c2ccc(C(C)(C)C#N)cc2)c(=NC#N)n4C)cc1C(F)(F)F [Example 129, N-(1-(4-(2-cyanopropan-2-yl)phenyl)-8-(6-(dimethylamino)-5-(trifluoromethyl)pyridin-3-yl)-3-methyl-1H-imidazo[4,5-c]quinolin-2(3H)-ylidene) cyanamide] | – | – | % Inhibition at 1 μM, PC3 (PC3 (prostate cell line); 1 μM): ++ (≧30% upto 70%); % Inhibition at 1 μM, A2780 ([1]; 1 μM): +++ (≧70%) |
| Cn1c(=NC#N)n(-c2ccc(C#N)nc2)c2c3cc(-c4cnc(N)c(C(F)(F)F)c4)ccc3ncc21 [Example 10, N-(8-(6-amino-5-(trifluoromethyl)pyridin-3-yl)-1-(6-cyanopyridin-3-yl)-3-methyl-1H-imidazo[4,5-c]quinolin-2(3H)-ylidene)cyanamide] | – | – | IC50 (PC3 (prostate cell line)): ≤ 0.5 µM; IC50 [1]: ≤ 0.5 µM |
| CNc1ncc(-c2ccc3ncc4c(c3c2)n(-c2ccc(C(C)(C)C#N)cc2)c(=NC#N)n4C)cc1C(F)(F)F [Example 12, N-(1-(4-(2-cyanopropan-2-yl)phenyl)-3-methyl-8-(6-(methylamino)-5-(trifluoromethyl)pyridin-3-yl)-1H-imidazo[4,5-c]quinolin-2(3H)-ylidene)cyanamide] | – | – | IC50 (PC3 (prostate cell line)): ≤ 0.5 µM; IC50 [1]: ≤ 0.5 µM |
| COc1ncc(-c2ccc3ncc4c(c3c2)n(-c2ccc(C(C)(C)C#N)cc2)c(=NC#N)n4C)cc1NS(=O)(=O)c1ccc(F)cc1F [Example 135, N-(5-(2-(cyanoimino)-1-(4-(2-cyanopropan-2-yl)phenyl)-3-methyl-2,3-dihydro-1H-imidazo[4,5-c]quinolin-8-yl)-2-methoxypyridin-3-yl)-2,4-difluorobenzenesulfonamide] | ≥ 70 | ≥ 70 | – |
| CC(=O)Nc1cc(C)c(-c2ccc3ncc4c(c3c2)n(-c2ccc(C(C)(C)C#N)nc2)c(=NC#N)n4C)cn1 [Example 128, N-(5-(2-(cyanoimino)-1-(6-(2-cyanopropan-2-yl)pyridin-3-yl)-3-methyl-2,3-dihydro-1H-imidazo[4,5-c]quinolin-8-yl)-4-methylpyridin-2-yl)acetamide] | < 30 | 30 to 70 | – |
| COc1ccc(-c2ccc3ncc4c(c3c2)n(-c2ccc(OC)nc2)c(=NC#N)n4C)cn1 [Example 48, N-(1,8-bis(6-methoxypyridin-3-yl)-3-methyl-1H-imidazo[4,5-c]quinolin-2(3H)-ylidene)cyanamide] | 30 to 70 | ≥ 70 | – |
| COc1ncc(-c2ccc3ncc4c(c3c2)n(-c2ccc(C(C)(C)C#N)cc2)c(=NC#N)n4C)cc1N [Example 84, N-(8-(5-amino-6-methoxypyridin-3-yl)-1-(4-(2-cyanopropan-2-yl)phenyl)-3-methyl-1H-imidazo[4,5-c]quinolin-2(3H)-ylidene)cyanamide] | ≥ 70 | ≥ 70 | – |
| Cn1c(=NC#N)n(-c2ccc(C(C)(C)C#N)nc2)c2c3cc(-c4ccc5ccccc5c4)ccc3ncc21 [Example 62, N-(1-(6-(2-cyanopropan-2-yl)pyridin-3-yl)-3-methyl-8-(naphthalen-2-yl)-1H-imidazo[4,5-c]quinolin-2(3H)-ylidene)cyanamide] | 30 to 70 | 30 to 70 | – |
| COc1ccc(-n2c(=NC#N)n(C)c3cnc4ccc(-c5ccc(SC(C)C)cc5)cc4c32)cn1 [Example 37, N-(8-(4-(isopropylthio)phenyl)-1-(6-methoxypyridin-3-yl)-3-methyl-1H-imidazo[4,5-c]quinolin-2(3H)-ylidene)cyanamide] | < 30 | 30 to 70 | – |
| COc1cc(-c2ccc3ncc4c(c3c2)n(-c2ccc(C(C)(C)C#N)nc2)c(=NC#N)n4C)cc(OC)c1OC [Example 57, N-(1-(6-(2-cyanopropan-2-yl)pyridin-3-yl)-3-methyl-8-(3,4,5-trimethoxyphenyl)-1H-imidazo[4,5-c]quinolin-2(3H)-ylidene)cyanamide] | 30 to 70 | ≥ 70 | – |
| COc1ncc(-c2ccc3ncc4c(c3c2)n(-c2ccc(C(C)(C)C#N)nc2)c(=NC#N)n4C)c(OC)n1 [Example 55, N-(1-(6-(2-cyanopropan-2-yl)pyridin-3-yl)-8-(2,4-dimethoxypyrimidin-5-yl)-3-methyl-1H-imidazo[4,5-c]quinolin-2(3H)-ylidene)cyanamide] | 30 to 70 | ≥ 70 | – |
| COc1ccc(-n2c(=NC#N)n(C)c3cnc4ccc(-c5cnc(N)c(C(F)(F)F)c5)cc4c32)cn1 [Example 1, N-(8-(6-amino-5-(trifluoromethyl)pyridin-3-yl)-1-(6-methoxypyridin-3-yl)-3-methyl-1H-imidazo[4,5-c]quinolin-2(3H)-ylidene)cyanamide] | – | – | IC50 (PC3 (prostate cell line)): ≤ 0.5 µM; IC50 [1]: ≤ 0.5 µM |
